The subject of this assay is Alcaligenes sp. KS-85 creatine amidinohydrolase, SEQ ID NO: 2 (recombinant, produced in E. coli). Nature of the assay: Km determination of creatine amidinohydrolase from Lineweaver-Burk plots. In kind it is biochemical. The note with it: urea formed quantified, 50 mM phosphate buffer pH 7.7, 37° C. The protocol:
The measurement of enzyme activity was conducted under the following conditions. 1 U of enzyme activity is defined as the amount which causes formation of 1 μmol of urea per minute.
6.63 g of creatine is dissolved in 500 ml of 50 mM phosphate buffer, pH 7.7.
10 g of .rho.-dimethylaminobenzaldehyde is dissolved in 500 ml ethanol (guaranteed reagent) and then mixed with a mixture of 575 ml deionized water and 75 ml conc. hydrochloric acid.
1) 0.9 ml of Solution 1 is pre-incubated as the substrate at 37° C. for 5 minutes.
2) 0.1 ml enzyme solution (adjusted to about 1-2 U/ml) is mixed with the substrate and allowed to react at 37° C. for 10 minutes.
3) Then, 2 ml of Solution 2 is mixed with the reaction solution.
4) Then, the mixture is allowed to stand at 25° C. for 20 minutes, and the absorbance at 435 nm is determined (OD sample).
5) As the blank, 0.9 ml of Solution 1 is incubated at 37° C. for 10 minutes and then 2 ml of Solution 2 and 0.1 ml enzyme solution are mixed with Solution 1, and the mixture is allowed to stand at 25° C. for 20 minutes, and the absorbance at 435 nm is determined (OD blank).
U/ml=ΔOD×18.06*×dilution degree

Each structure is given as a SMILES string.

`CN(CC(=O)O)C(=N)N` [creatine]: the Km (usually the concentration of substrate that gives half-maximal velocity) was 13 mM.

Values taken from patent US5932466A, “Creatine amidinohydrolase gene, a novel recombinant DNA, and a process for producing creatine amidinohydrolase” (Kikkoman Corporation, priority 1994, dated 1999).
